{"source": "patent US20210186930A1", "about": "“Methods of Treating Renal Disease Associated With Chronic Kidney Disease Such as Alport Syndrome” (UNIVERSITY OF MIAMI, priority 2018, published 2021)", "key": {"Col4a3−/− mice [1]": {"test_system": "Col4a3−/− mice", "test": "Renal cortex lipid content in Col4a3-/- mice (Example 4, FIG. 7)", "type": "in vivo, mouse", "settings": "for triglyceride (TG) content in kidney cortexes: treated vs untreated Col4a3−/− mice, ezetimibe 5 mg/kg, ramipril 10 mg/kg, 4 weeks", "method": "Determination of cholesterol content in kidney cortex: Tissue from kidney cortexes was homogenized in hypotonic buffer (10 mM HEPES pH7.0, 15 mM KCl, 1 mM MgCl2, 10 mM phosphatase inhibitors). Lipids from 100 μl of the homogenate were extracted with 1 ml of hexane:isopropanol (3:2, v/v), dried and reconstituted in 100 μl of isopropanol-NP40 (9:1, v/v). Tissue fractions not soluble in the organic solvent, were further dried, reconstituted in 8 M urea, and assayed for protein concentration using Pierce BCA protein assay kit (ThermoFisher Scientific, MA, USA). Total cholesterol from lipid extracts was determined by the enzymatic method as previously described (Robinet, P., Wang, Z., Hazen, S. L. & Smith, J. D. A simple and sensitive enzymatic method for cholesterol quantification in macrophages and foam cells. Journal of lipid research 51, 3364-3369, 2010). Briefly, endogenous peroxides present were eliminated by incubating samples and standards with catalase (Sigma-Aldrich, MO, USA), 45 U/ml final concentration, for 15 min at 37° C. […] The plates were incubated at 37° C. for 30 min and fluorescence was read at 530 nm (Ex) and 580 nm (Em) in a plate reader (SpectraMax M5, Molecular Devices, CA, USA). Cholesteryl esters (CE) quantification was based on the method described from Toshimi M, et al. Briefly, 25 μl of samples was mixed with 150 μl of free cholesterol decomposition reagent (45 U/ml catalase, 1 U/ml cholesterol oxidase) and incubated 2-4 h at 37° C., and then the final volume was brought up to 250 μl prior to determining free and total cholesterol remaining. Total cholesterol remaining was determined by mixing 50 μl of end product reaction with 50 μl of reagent A, as described above. Free cholesterol remaining was determined similarly, but without including cholesterol esterase in the reagent. CE was calculated by the formula CE=(TC−FC)×DF, where TC is the total cholesterol remaining, FC the free cholesterol remaining and DF the dilution factor, in this case, 10. Lipid content: Oil Red 0 staining was performed on frozen tissue sections and triglyceride content was determined on snap frozen kidney tissue as described above. The following experiment was performed to investigate which treatment, ezetimibe (EZ), ramipril (Ramp) or the combination of both drugs (EZ+Ramp), would best preserve renal function in Col4a3 knockout mice, all drugs were administered to 4-week-old Col4a3−/− mice for 4 weeks as follows: ezetimibe (Ez) was orally administered at a concentration of 5 mg/kg BW, ramipril was added to the drinking water at a concentration that would lead to a daily ramipril uptake of 10 mg/kg BW. All mice were sacrificed at 8 weeks of age. The following four groups of mice were analyzed: Col4a3^+/+, Col4a3^−/−+Ez, Col4a3^−/−+Ramp and Col4a3^−/−+Ez+Ramp."}, "Col4a3−/− mice [2]": {"test_system": "Col4a3−/− mice", "test": "Mesangial expansion (PAS) and renal fibrosis (Picrosirius Red) in Col4a3-/- mice (Example 3, FIG. 6)", "type": "in vivo, mouse", "settings": "treated vs untreated Col4a3−/− mice; ezetimibe 5 mg/kg, ramipril 10 mg/kg, 4 weeks", "method": "Assessment of mesangial expansion: Periodic acid-Schiff (PAS) staining of 4 μm-thick tissue sections was performed using a standard protocol. Twenty glomeruli per section were analyzed for mesangial expansion by semi quantitative analysis (scale 0-4) performed by two blinded independent investigators.\nPicrosirius red staining: Paraffin-embedded sections (4 μm thick) were deparaffinized with xylene and a graded alcohol series. Sections were rinsed for 5 min in distilled water, stained for 1 hour with picrosirius red in saturated aqueous picric acid, examined under a light microscope and photomicrographs were taken. Histological images were visualized using a light microscope (Olympus BX 41, Tokyo, Japan) at 40× magnification and analyzed using Image J software.\nThe following experiment was performed to investigate which treatment, ezetimibe (EZ), ramipril (Ramp) or the combination of both drugs (EZ+Ramp), would best preserve renal function in Col4a3 knockout mice, all drugs were administered to 4-week-old Col4a3−/− mice for 4 weeks as follows: ezetimibe (Ez) was orally administered at a concentration of 5 mg/kg BW, ramipril was added to the drinking water at a concentration that would lead to a daily ramipril uptake of 10 mg/kg BW. All mice were sacrificed at 8 weeks of age. The following four groups of mice were analyzed: Col4a3^+/+, Col4a3^−/−+Ez, Col4a3^−/−+Ramp and Col4a3^−/−+Ez+Ramp.\nPAS staining was performed to detect and quantify mesangial expansion, Picrossirius Red staining to detect and quantify renal fibrosis in treated compared to untreated Col4a3^−/− mice. […] Representative images for PAS staining are shown in FIG. 6A and of Picrosirius Red staining to detect fibrosis in […]. Bar graph quantifications for both are shown in FIGS. 6C and 6D, respectively."}}, "note": "“Also recorded” adds a separate entry of the source."}
{"smiles": "O=C1[C@H](CC[C@H](O)c2ccc(F)cc2)[C@@H](c2ccc(O)cc2)N1c1ccc(F)cc1", "note": "[ezetimibe]", "values": [{"measurement": "total cholesterol content (kidney cortexes)", "setting": "Col4a3−/− mice [1]; ezetimibe only treated Col4a3−/− mice", "result": "no effect on the total cholesterol content"}, {"measurement": "triglyceride (TG) content in kidney cortexes", "setting": "Col4a3−/− mice [1]", "result": "significantly decreased"}, {"measurement": "triglyceride (TG) content in kidney cortexes", "setting": "Col4a3−/− mice [1]; listed as ezetemibe", "result": "significantly decreased renal triglyceride content"}, {"measurement": "mesangial expansion (PAS staining, score)", "setting": "Col4a3−/− mice [2]", "result": "significant reduction; also recorded: significantly reduced mesangial expansion"}, {"measurement": "renal fibrosis (Picrosirius Red staining)", "setting": "Col4a3−/− mice [2]", "result": "significant reduction; also recorded: significantly reduced"}]}
